Laboratory results published in patent publication US11559513B2, “PTGDR-1 and/or PTGDR-2 antagonists for preventing and/or treating systemic lupus erythematosus” (INSTITUT NATIONAL DE LA SANTE ET DE LA RECHERCHE MEDICALE …, priority 2015, dated 2023).

Key:
[1] = system: WT mouse spleen basophils (splenocytes); assay: CXCR4 expression on mouse spleen basophils ex vivo; assay type: cell-based; conditions: for CXCR4 expression on other WT splenocytes including T and B cells: data not shown; for CXCR4 expression on spleen WT basophils ex vivo: specific agonists, 24 hours ex vivo
From the text: (a) Ex vivo migration of basophils from whole WT or Lyn^−/− splenocytes to CXCL12. (b) CXCR4 expression levels on basophils from the indicated compartments in aged WT (n=16) and Lyn^−/− (n=14) animals. Data are normalized to the mean CXCR4 expression level of WT blood basophils. Statistical analyses placed directly above each bar compared the value for one given compartment to the blood compartment of the corresponding genotype. Statistical analyses between both genotypes for each compartment are also indicated. (c) Basophil number per peritoneum in young WT mice 24 hours after intraperitoneal (ip) injection of PBS or CXCL12 and compared to steady state (−) values (n=13/15/5, respectively). (d) CXCR4 expression levels on basophils from mesenteric lymph nodes (mLN) of young Lyn^−/− mice 24 hours after PBS or PGD2 ip injection normalized to PBS injected mice values' mean. (e) Basophil number in mLN of young Lyn^−/− mice 24 hours after ip injection of the indicated compound(s). (f) CXCR4 expression levels on spleen basophils from 15 weeks old WT mice incubated ex vivo for 24 hours with the indicated compound and normalized to the control values' mean. […] Basophils number and CXCR4 expression were assessed by flow cytometry. Statistical analyses were by unpaired t test with Welch's correction (a-e) and by paired Student t test (f).
(a-b) Relative CXCR4 expression levels on basophils (defined as CD19^−TCRβ^−CD3^−CD49b+FcεRIα^+CD123^+)CD45^lo and T cells (defined as CD45^+CD3^+TCRβ^+ cells) in splenocytes incubated 4 hours without (−) or with the indicated concentration of N6,2′-O-dibutyryl-adenosine 3′:5′-cyclic monophosphate (db-cAMP) or 1 μM PGD2 as determined by flow cytometry. Statistical analyses were by paired Student t tests. NS: not significant, *: P<0.05, **: P<0.01, ***: P<0.001. (c) Relative CXCR4 expression levels on spleen basophils (defined as in (a)) incubated 4 hours without (0) or with the indicated concentration (nM) of the indicated compound(s). DK-PGD2: 13,14-dihydro-15-keto-PGD2 (PTGDR-2 specific agonist); BW245c: 3-(3-Cyclohexyl-3-hydroxypropyl)-2,5-dioxo-(R*,S*)-(±)-4-imidazolineheptanioc acid (PTGDR-1 specific agonist) as determined by flow cytometry. Statistical analysis was by two-ways ANOVA followed by a Tukey's multiple comparisons test. (a-c) Data are normalized to control value mean (per group, n=4 to 8). Data are expressed as mean+s.e.m. All experiments were realized with splenocytes from 8-12 weeks old WT mice.
(§1) Human basophils and mouse splenocytes were cultured in culture medium (RPMI 1640 with Glutamax and 20 mM HEPES, 1 mM Na-pyruvate, non-essential amino acids 1× (all from Life Technologies, Saint-Aubin, France), 100 μg/ml streptomycin and 100 U/ml penicillin (GE Healthcare, Vélizy, France) and 37.5 μM β-mercaptoethanol (Sigma-Aldrich, MO)) supplemented with 20% heat-inactivated fetal calf serum at 37° C. and 5% CO2. 18 hours-long stimulation prior to migration assays were done in culture medium at 1×10^6 cells per mL by adding 1 nM of IL-3 (Peprotech), 1 μM of prostaglandin D2 (PGD2), 1 μM of the PTGDR-1 specific agonist BW245c, 1 μM of the PTGDR-2 specific agonist 13,14-dihydro-15-keto Prostaglandin D2 (DK-PGD2) (all from Cayman chemicals) or 5 ng/mL of anti-IgE (mouse anti-human IgE or rat anti-mouse IgE, both from Thermo Scientific). All cells were washed twice before any migration assay. Control conditions were always with the same vehicle concentration as stimulated conditions.

[2] = molecular target: CXCR4 (Homo sapiens, UniProt P61073); conditions: cited from earlier work
[3] = system: Lyn−/− mice; assay: PGD2-induced basophil in vivo migration assay; parameters: species or system mouse
[4] = system: 12 weeks old Lyn−/− mice; assay: Acceleration of lupus-like disease development by repeated PGD2 injections
From the text: (a,b) Proportion of basophils (CD19^−TCRβ^−CD49b^+FcεRIα^+CD123^+)CD45^lo) among singlets living CD45^+ cells in mesenteric (a) and other (cervical, brachial and inguinal) lymph nodes (b) from 10 to 12 weeks-old Lyn^−/− mice injected over ten days with PBS (open circles) or PGD2 alone (open squares), and PGD2 injected and basophil depleted (MAR-1) (open diamonds) or not (IgG) (open triangles) as described in the methods. (c) IA-IE expression levels on LN basophils from mice as in (b). […] (d,e) Proportion of short lived plasma cells CD19^+CD138^+ among singlets living CD45^+ cells in spleen (d) and lymph nodes (e) in the same mice as in (b). (f) Representative immunofluorescence staining for C3 and IgG deposits in kidneys from mice as indicated in (b) (scale bar=1 mm) and their corresponding quantifications in PBS (n=3), PGD2 (n=4), PGD2+control IgG (n=3) and PGD2+MAR-1 (n=3) injected mice. (g) Fold increase in urine albumin/creatinine ratio before and after PBS or PGD2 10 days-long treatment. (a-e) Basophil, plasma cell numbers and IA-IE expression levels were assessed by flow cytometry. (a-g) Data are expressed as means±s.e.m. […] One representative out of three independent experiments is shown.
For acceleration of disease development by PGD2 injections, 12 weeks old Lyn^−/− mice were injected ip with 20 nmoles of PGD2 or vehicle in PBS, every two days for 10 days, for a total of 6 injections. Mice were analyzed the day following the last injection. […] Cell viability was assessed by the utilization of Ghost Dye Violet 510 (Tonbo, San Diego, Calif.).
Quantification of C3 and IgG deposits was realized by using ImageJ software (v1.49p, NIH, USA). A minimum of 20 glomeruli was quantified per kidney. For assessment of kidney function the albumin/creatinine ratio (ACR) was determined. Urine was collected from each mouse before and after treatment. The albumin concentration was measured with a mouse albumin ELISA (Bethyl laboratories, Montgomery, Tex.). A creatinine assay (R&D systems, Minneapolis, Minn.) was used to determine urine creatinine concentrations. Results are expressed as a fold increase corresponding to the ratio of the ACR after/before treatment.

[5] = system: purified human basophils; assay: 18 hours stimulation of purified human basophils, marker expression and migration towards CXCL12; assay type: cell-based
From the text: Human basophils were purified to >95% by negative selection with the Human Basophils Enrichment kit (Stemcell Technologies, Grenoble, France) for culture, stimulation and chemotaxis experiments. In some chemotaxis experiments, human basophils were enriched to 3-5% by negative selection with the Human PE positive selection kit (Stemcell Technologies) by using a cocktail of PE-conjugated anti-CD3, CD19 and CD89 (BioLegend). These kits were used following manufacturer instructions.
as §1
Migration assays were performed in culture medium supplemented with 0.1% bovine serum albumin (BSA, Sigma-Aldrich) in Transwell 5 μm polycarbonate permeable support 6.5 mm inserts (Corning, N.Y., N.Y.) for 3 hours at 37° C. and 5% CO2 with 1×10^5 purified basophils or 2×10^5 enriched basophils at 1×10^6 cells per mL. Purified or enriched basophils from the upper and bottom chambers were counted at the end of the assay. Basophil content and phenotype was determined by flow cytometry by analyzing more than 100 basophils. Purification or enrichment of human basophils didn't show any difference in the measured migration for all tested chemokines. Migration was defined as the ratio between the number of basophils in the bottom chamber and the number of basophils in the upper plus the bottom chambers. Spontaneous migration was defined as the migration observed without any chemokine in the bottom chamber. Corrected migration was defined as the difference between specific and spontaneous migration. For migration assays the following concentrations (known to be optimal) were used for each compound: Human IL-3: 300 pM (Peprotech), human CCL3, CCL5, and CXCL12: 50 nM; CXCL2 (all from BioLegend) and PGD2 (Cayman chemicals): 100 nM. Migration to human CCL3, CCL5, CXCL2, and PGD2 was done in the presence of IL-3 at 300 pM in both chambers. Migration with IL-3 represents chemokinetism: IL-3 was added in both chambers to the same concentration and compared to the spontaneous migration observed without IL-3. Effects of 24 hours incubation with IL-3 or PGD2 (as described above) on basophil apoptosis were estimated by using the FITC Annexin V Apoptosis Detection Kit from BD Biosciences and used accordingly to manufacturer's instructions.

[6] = system: WT mice; assay: CXCL12-induced basophil in vivo migration assay; parameters: species or system mouse; conditions: intraperitoneal injection, 24 hours
[7] = ip every two days over ten days

CXCR4, sequence (P61073 whole entry, species assumed): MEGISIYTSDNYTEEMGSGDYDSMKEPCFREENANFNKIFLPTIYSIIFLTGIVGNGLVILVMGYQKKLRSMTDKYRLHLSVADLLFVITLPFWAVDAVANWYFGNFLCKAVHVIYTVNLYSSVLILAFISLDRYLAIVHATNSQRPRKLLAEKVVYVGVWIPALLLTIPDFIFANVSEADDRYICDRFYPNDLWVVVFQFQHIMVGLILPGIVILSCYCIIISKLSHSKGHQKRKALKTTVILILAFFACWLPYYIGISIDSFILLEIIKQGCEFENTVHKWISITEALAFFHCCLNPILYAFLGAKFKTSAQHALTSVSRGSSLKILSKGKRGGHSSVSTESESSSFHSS

O=C(O)CCCCCCC1C(=O)NC(=O)N1CCC(O)C1CCCCC1 (racemic) [BW245c, 3-(3-Cyclohexyl-3-hydroxypropyl)-2,5-dioxo-(R*,S*)-(±)-4-imidazolineheptanioc acid]
CXCR4 expression on other WT splenocytes including T and B cells [1]: significant but much lower increase
CXCR4 expression on spleen WT basophils ex vivo [1]: up-regulation

c1cc(CN2CCCNCCNCCCNCC2)ccc1CN1CCCNCCNCCCNCC1 [AMD3100]
known effects of CXCR4 antagonism [2]: induce a release of hematopoietic stem cells and interfere with homeostatic functions
PGD2-induced basophil recruitment in SLOs and peritoneum ([3]; co-injection with PGD2, ip): completely abolished

CCCCCC(=O)CCC1C(=O)CC(O)C1C/C=C\CCCC(=O)O (stereo not shown) [DK-PGD2, 13,14-dihydro-15-keto-PGD2]
CXCR4 expression on other WT splenocytes including T and B cells [1]: significant but much lower increase
CXCR4 expression on spleen WT basophils ex vivo [1]: up-regulation

CCCCC[C@H](O)/C=C/[C@H]1C(=O)C[C@H](O)[C@@H]1C/C=C\CCCC(=O)O [PGD2, 9α,15S-dihydroxy-11-oxo-prosta-5Z,13E-dien-1-oic acid]
CXCR4 expression on mLN basophils ([3]; i.p. injection, 24 hours): increased
basophil accumulation in SLOs and peritoneum ([3]; i.p. injection, 24 hours): drove their accumulation
peripheral basopenia compared to steady state ([3]; ip injection, data not shown): significant, but transient
CXCR4 externalization by T cells ([1]; 1 μM, 4 hours ex vivo): unable
CXCR4 surface expression of other immune cell types ([4]; data not shown): didn't show any significant increase
albuminuria ([4]; end of protocol, versus PBS-injected): increased albuminuria
CD19+CD138+ plasma cells in SLOs [4, 7]: increased proportion
IA-IE expression on basophils [4, 7]: increased
basophil accumulation in SLOs [4, 7]: accumulated systemically
immune complexes in the kidney (C3 and IgG deposition) [4, 7]: increased deposition
basophil CXCR4 expression levels ([4]; ip every two days over ten days, data not shown): increased
basophil apoptosis ([5]; 1 μM, data not shown): without inducing
CXCR4 expression on basophils ([5]; 18 hours priming, 1 μM PGD2 or sub-optimal anti-IgE): enhanced
PTGDR-2 internalization ([5]; 18 hours, 1 μM, data not shown): induced
FcεRIα expression on basophil surface ([5]; PGD2 priming, data not shown): slight increase
migration towards CXCL12 ([5]; after 18 hours priming): enhanced

CCCC(=O)Nc1ncnc2c1ncn2[C@@H]1O[C@@H]2COP(=O)(O)O[C@H]2[C@H]1OC(=O)CCC [db-cAMP, N6,2′-O-dibutyryl-adenosine 3′:5′-cyclic monophosphate]
CXCR4 externalization by mouse WT spleen basophils ([1]; 4 hours ex vivo): externalized
sensitivity of basophils versus T cells to the compound (CXCR4 externalization) ([1]; 4 hours ex vivo): 100 fold

CXCL2: chemokine known to have an effect on basophils
increased CXCR4 externalization ex vivo as PGD2 did ([5]; data not shown): None

CXCL12: C—X—C motif Ligand 12, chemokine; murine CXCL12 injected ip
in vivo basophil migration to the injection site and draining mesenteric lymph nodes [6]: induced

B1: CCL5: chemokine known to have an effect on basophils (protein, UniProt P13501 24-91, looked up)
C-C motif chemokine 5: SPYSSDTTPCCFAYIARPLPRAHIKEYFYTSGKCSNPAVVFVTRKNRQVCANPEKKWVREYINSLEMS
increased CXCR4 externalization ex vivo as PGD2 did ([5]; data not shown): None

B2: CCL3: chemokine known to have an effect on basophils (protein, UniProt P10147 24-92, looked up)
C-C motif chemokine 3: SLAADTPTACCFSYTSRQIPQNFIADYFETSSQCSKPGVIFLTKRSRQVCADPSEEWVQKYVSDLELSA
increased CXCR4 externalization ex vivo as PGD2 did ([5]; data not shown): None
